Where no end group is shown, it is not given here.
System: corneal epithelium
Test: Action for extending corneal epithelium (in vitro), corneal blocks in tissue culture
Assay type: cell-based, male Japanese White rabbit
Conditions: for Extension ratio (%): 24 hours culture, control = 100%, mean of six sections; for activity in corneal epithelium extension test: in combination with substance P; for influence on the extension of corneal epithelium: peptide alone
Procedure: (1) Action For Extending Corneal Epithelium (In Vitro)
Using the cornea of a male Japanese White rabbit and according to the method of Nishida et al. (J. Cell Biol., 97, 1653-1657 (1983)), the length of corneal epithelium extension of the corneal section in a tissue culture system was used as a marker to examine the influence on corneal epithelium extension.
Corneal blocks cut off from rabbit corneal section (6 blocks per group) were cultured in culture media (TC-199) containing a test compound under conditions of 5% CO2 at 37° C. for 24 hours. After culturing, the corneal blocks were fixed in a mix solution of ethanol-glacial acetic acid (volume ratio: 95:5) and then embedded in paraffin to prepare sections. After paraffin was removed from the sections, the resulting sections were stained with hematoxylin-eosin to examine the extended length of the corneal epithelial cell layer with a microscope. As a control, the blocks cultured in the same manner in the culture media without any test compound were used.
Herein, the extension ratio in the table is the mean of six sections per group, as calculated when the elongated length of the control group was defined as the basal line (100%).

[1] = test peptide 1 nM + substance P (20 μM)

| Substance | Extension ratio (%) [1] | Extension ratio (%) (test peptide alone, 1 nM) | other results |
| --- | --- | --- | --- |
| ASSSRRAP (Human) [Ala-Ser-Ser-Ser-Arg-Arg-Ala-Pro] | 134% |  |  |
| GSSSRAAAP (Human) [Gly-Ser-Ser-Ser-Arg-Ala-Ala-Ala-Pro] | 139% | 100% |  |
| GSSSRAAP (Human) [Gly-Ser-Ser-Ser-Arg-Ala-Ala-Pro] | 150% |  |  |
| GSSSRR | 142% | 94% |  |
| GSSSRRAP (Human) [Gly-Ser-Ser-Ser-Arg-Arg-Ala-Pro] | 140% | 97% | activity in corneal epithelium extension test: the activity still remained |
| GYGSSSRRAPQT (Human) [Gly-Tyr-Gly-Ser-Ser-Ser-Arg-Arg-Ala-Pro-Gln-Thr, the peptide composing the domain C of IGF-I] | 134% | 104% | activity in corneal epithelium extension test: had the activity |
| Gly-Ser-Ser-Ser-Arg (GSSSR; Human) | 135% | 101% |  |
| Phe-Gly-Leu-Met-NH2 (FGLM-NH2) [tetrapeptide on the C terminal of substance P, reference compound] |  |  | influence on the extension of corneal epithelium: not observed to have any influence; Extension ratio (%) (test peptide alone, 20 μM): 99% |
| Ser-Ser-Ser-Arg (SSSR; Human) | 138% | 101% | Extension ratio (%) (test peptide 1 nM + FGLM (20 μM)): 145% |
| Ser-Ser-Ser-Arg-Arg (SSSRR; Human) | 136% | 98% |  |
| Substance P: polypeptide consisting of 11 amino acids (RPKPQQFFGLM-NH2; ends and bridges not checked; UniProt P20366 58-68, looked up) [reference compound] |  |  | influence on the extension of corneal epithelium: not observed to have any influence; Extension ratio (%) (test peptide alone, 20 μM): 94% |
